Assay results reported in paper PMC6761391, “Blockade of Mas Receptor or Mas-Related G-Protein Coupled Receptor Type D Reduces Portal Pressure in Cirrhotic but Not in Non-cirrhotic Portal Hypertensive Rats” (Frontiers in Physiology, 2019).
Where a name gives a salt, the structure may show the parent alone. Non-standard residues stand in square brackets, D forms with d. Residues, ends and D or L forms follow the SMILES beside them.

Assays:
[1] = In vivo angiotensin (1-7) peptide metabolism assay (plasma concentration by radioimmunoassay); conditions: BDL rats, 10 μg/kg i.v. bolus; for time of peak plasma concentration post-injection: blood at 30 s, 1, 2, 5 min, Ang-(1-7) radioimmunoassay (cross-reactivity for A779 and D-Pro not determined); for time of peak plasma concentration post-injection / time for circulating peptide levels to return to baseline levels after injection: 4 rats per group, plasma; for fate in the rat circulation following a bolus injection: circulating concentrations by radioimmunoassay; for time for circulating peptide levels to return to baseline levels after injection: Ang-(1-7) radioimmunoassay
Procedure: To determine the longevity of the angiotensin peptides in the rat circulation, a separate set of experiments was carried out using BDL rats. Four weeks after BDL, the rats were anesthetized with ketamine/xylazine mixture and the femoral artery and vein were cannulated using PE-10 catheters as described previously ([Grace et al., 2013]). After 30 min of stabilization, 1 ml of blood was drawn from the femoral artery as the baseline sample into an Eppendorf tube containing protease inhibitor mix (20 μl/ml of blood: 50 mmol/L Na2 EDTA, 0.2 mol/L N-ethylmaleimide, 21,000 U/ml aprotonin, 5 mg/ml leupeptin, and 1 mg/ml pepstatin; prepared fresh daily and kept on ice) to prevent breakdown of angiotensin peptides. Injection of either MasR or MrgD blockers, A779 or D-Pro (10 μg/kg), respectively, was performed thereafter via the femoral vein catheter. Blood samples were collected at 30 s, 1, 2, and 5 min after injection. A separate group of rats was injected with Ang-(1-7) peptide (10 μg/kg) and blood was collected as before. After completion of the experiment, the rats were euthanized by exsanguination. Blood samples were centrifuged at 4,000 rpm for 10 min to harvest plasma. Radioimmunoassay for Ang-(1-7) (Prosearch International, Australia, Pty Ltd) was performed to determine plasma concentration of peptide blockers and Ang-(1-7) at different time points. Twelve BDL rats were used for the experiment, with four rats in each of the three treatment groups. The extent of cross-reactivity for D-Ala (A779) and D-Pro was not determined for the Ang-(1-7) radioimmunoassay.

[2] = test system: cirrhotic carbon tetrachloride (CCl4) injected rats; assay: Portal pressure (PP) measurement in cirrhotic CCl4 rats after intravenous bolus injection; assay type: in vivo, Sprague Dawley rats
Procedure: (§1) Six-week-old male Sprague Dawley rats (200–250 g BW) were used to induce cirrhosis and PHT by injections of carbon tetrachloride (CCl4) as described previously ([Fallowfield et al., 2014]). Rats were housed in a controlled environment as described above. CCl4 was administered twice weekly via intraperitoneal injections, at a dose of 1 ml/kg, mixed with 1:1 ratio with olive oil. After 10 weeks of CCl4 administration, the rats were used for receptor blocker infusion experiments.
(§2) Four weeks after BDL, 10 weeks after CCl4 and 2 weeks after PPVL, the rats were anesthetized with ketamine/xylazine mixture (75 and 10 mg/kg BW, respectively, Therapon Pty Ltd). A median laparotomy was performed, and a small PE 10 polyethylene catheter (Microtube Extrusions, NSW, Australia) was inserted into a small ileocecal vein and advanced to the portal vein to measure PP. A skin incision was made in the left inner thigh to identify the left femoral artery and cannulated with a PE 10 catheter to measure the mean arterial pressure (MAP). Portal vein and femoral artery catheters were connected to a highly sensitive pressure transducer (Zultek Engineering, Melbourne, VIC, Australia). The left femoral vein was cannulated with a similar PE 10 catheter for bolus injections of the receptor blockers. After insertion of the catheters, the rats were allowed to stabilize hemodynamically for 30 min prior to interventions.
The baseline values of PP and MAP were recorded prior to injection of the drugs. For a single receptor blocker experiments, either MasR blocker A779 (10 μg/kg) ([Grace et al., 2013]), MrgD blocker D-Pro (10 μg/kg), or AT2R blocker PD123319 (1 mg/kg) ([Yang et al., 2011]) was administered intravenously via the femoral vein catheter as a single bolus injection. The dose was calculated for each individual rat according to body weight. The bolus injection was prepared by dissolving a stock solution of […] (A779 or D-Pro) or 10 mg/ml (PD123319) in 0.9% NaCl to make a minimum injectable volume of 0.25 ml. This is to avoid variations in pressure due to adding volume to the circulation. After the bolus injection of the drug, the catheter was slowly flushed with 0.25 ml 20 IU/ml heparinized saline. Measurement of PP and MAP was continued for additional 30 min after injection (Figure 2A). Each treatment group of BDL, CCl4, and PPVL consisted of six to seven rats. For each model, a separate control group of animals (n = 6 per group) received saline injections for comparison with the treatment effects.
A separate set of experiments were carried out in the two cirrhotic PHT rat models (BDL and CCl4) to investigate whether the detrimental effects of AT1R blocker losartan on systemic arterial pressure can be counteracted by a second injection of either MasR or MrgD blockers; A779 or D-Pro, respectively. In this study, a bolus injection of losartan was administered and 20 min later, a bolus injection of either A779 or D-Pro was given. The pressure measurement was carried out for additional 20 min after the second injection (Figure 2B). A total of 18 BDL and 18 CCl4 rats were used (n = 6 per treatment group).

[3] = test system: cirrhotic bile duct ligated (BDL) rats; assay: Portal pressure (PP) measurement in cirrhotic bile duct ligated (BDL) rats after intravenous bolus injection; assay type: in vivo, Sprague Dawley rats
Procedure: (§3) Eight-week-old male Sprague Dawley rats (300–350 g BW) underwent bile duct ligation surgery (BDL) to induce cirrhosis and PHT. Rats were housed in a controlled environment with 12:12-h light to dark cycle with controlled temperature (22–24°C) and fed standard rat chow ad libitum (Norco, Lismore NSW, Australia) and water. After 1 week of acclimatization, the rats were anesthetized with isoflurane gaseous anesthesia (Therapon Pty Ltd., Victoria, Australia). The rats were also given a single dose of carprofen (5 mg/kg, Rimadyl, Australia) subcutaneously prior to surgery to limit post-operative discomfort. BDL surgery was performed as previously described ([Herath et al., 2007]). Briefly, a midline incision was made in the abdomen to enter the peritoneal cavity. The common bile duct was located and double ligated with 4/0 silk suture. The bile duct was then transacted between two ligatures. Intraoperatively, animals were kept warm on a heat pad and received 0.9% NaCl 10 ml/kg. The abdominal wall was closed in two layers using sterile 4/0 silk suture. Four weeks after BDL surgery, the rats were used for receptor blocker infusion experiments as described below.
as §2
(§4) The baseline values of PP and MAP were recorded prior to injection of the drugs. For a single receptor blocker experiments, either MasR blocker A779 (10 μg/kg) ([Grace et al., 2013]), MrgD blocker D-Pro (10 μg/kg), or AT2R blocker PD123319 (1 mg/kg) ([Yang et al., 2011]) was administered intravenously via the femoral vein catheter as a single bolus injection. The dose was calculated for each individual rat according to body weight. The bolus injection was prepared by dissolving a stock solution of […] (A779 or D-Pro) or 10 mg/ml (PD123319) in 0.9% NaCl to make a minimum injectable volume of 0.25 ml. This is to avoid variations in pressure due to adding volume to the circulation. […]

[4] = test system: non-cirrhotic partial portal vein ligated (PPVL) rats; assay: Portal pressure (PP) measurement in non-cirrhotic PPVL rats after intravenous bolus injection; assay type: in vivo, Sprague Dawley rats; conditions: non-cirrhotic PPVL rat model; single i.v. bolus (A779, D-Pro 10 μg/kg; PD123319 1 mg/kg)
Procedure: (§5) Eight-week-old male Sprague Dawley rats (300–350 g BW) were used to induce non-cirrhotic portal hypertension by partial portal vein ligation (PPVL) surgery as described previously ([Kahn et al., 1988]). Briefly, under gaseous anesthesia, a median laparotomy was performed and the portal vein was identified. A 19G needle was placed alongside the length of the portal vein, and a 4/0 silk suture was tied around the portal vein and the needle. The needle was then removed creating a calibrated stenosis in the portal vein, partially obstructing the portal flow. The abdominal wall was closed in two layers using sterile 4/0 silk suture. Two weeks after PPVL, the rats were used for receptor blocker infusion experiments.
(§6) Four weeks after BDL, 10 weeks after CCl4 and 2 weeks after PPVL, the rats were anesthetized with ketamine/xylazine mixture (75 and 10 mg/kg BW, respectively, Therapon Pty Ltd). A median laparotomy was performed, and a small PE 10 polyethylene catheter (Microtube Extrusions, NSW, Australia) was inserted into a small ileocecal vein and advanced to the portal vein to measure PP. […]
(§7) The baseline values of PP and MAP were recorded prior to injection of the drugs. […] The dose was calculated for each individual rat according to body weight. […]

[5] = test system: cirrhotic carbon tetrachloride (CCl4) injected rats; assay: Mean arterial pressure (MAP) measurement in CCl4 rats; assay type: in vivo, Sprague Dawley rats; conditions: CCl4 model
Procedure: as §1, §2, §4

[6] = test system: cirrhotic bile duct ligated (BDL) rats; assay: Mean arterial pressure (MAP) measurement in BDL rats; assay type: in vivo, Sprague Dawley rats; conditions: BDL model
Procedure: as §3
as §2, with “The left femoral vein was cannulated with a similar PE 10 catheter for bolus injections of the receptor blockers. After insertion of the catheters, the rats were allowed to stabilize hemodynamically for 30 min prior to interventions.” left out
as §7

[7] = test system: non-cirrhotic partial portal vein ligated (PPVL) rats; assay: Mean arterial pressure (MAP) measurement in PPVL rats; assay type: in vivo, Sprague Dawley rats; conditions: single i.v. bolus (A779, D-Pro 10 μg/kg; PD123319 1 mg/kg)
Procedure: as §5, §6, §7

[8] = test system: MrgD; conditions: HEK293 cells transfected with MrgD; ref Tetzner et al., 2016; cited from earlier work
Source text: There is some evidence that ATR2 also mediates Ang-(1-7) action. This was based on observations that the vasodilatory effects of Ang-(1-7) in vivo ([Heitsch et al., 2001]) and ex vivo and in vitro ([Tesanovic et al., 2010]; [Grace et al., 2013]) were inhibited by AT2R blockade with PD123319.

[9] = test system: MasR; conditions: ref Santos et al., 2003; cited from earlier work
Source text: Although it is well known that Ang (1-7) produces its effects by binding to MasR and MrgD ([Santos et al., 2003]; [Tetzner et al., 2016]), early cell culture studies have reported some actions of Ang-(1-7) were mediated via the subtypes of AT1R ([Muthalif et al., 1998]; [[…] et al., 2001]). Some studies also proposed that MasR may interact with AT1R by receptor hetero-dimerization or alterations in post-receptor signaling ([Castro et al., 2005]; [Kostenis et al., 2005]; [Tesanovic et al., 2010]; [Castelo-Branco et al., 2017]; [O'Neill et al., 2017]), which in turn leads to the inhibition o ...

[10] = CCl4 model, single i.v. bolus (A779, D-Pro 10 μg/kg; PD123319 1 mg/kg)
[11] = CCl4 model, losartan 1 mg/kg i.v. bolus
[12] = BDL model, losartan 1 mg/kg i.v. bolus
[13] = losartan 1 mg/kg i.v. bolus, 12 to 14 rats

Compound: CC[C@H](C)[C@H](NC(=O)[C@H](Cc1ccc(O)cc1)NC(=O)[C@@H](NC(=O)[C@H](CCCNC(=N)N)NC(=O)[C@@H](N)CC(=O)O)C(C)C)C(=O)N[C@@H](Cc1cnc[nH]1)C(=O)N[C@H](C)C(=O)O [A779] (H-DRVYIH[dA]-OH)
- time of peak plasma concentration post-injection [1]: 2 min
- fate in the rat circulation following a bolus injection [1]: rapidly degraded in the rat circulation
- time for circulating peptide levels to return to baseline levels after injection [1]: ≤ 5 min

Compound: CC[C@H](C)[C@H](NC(=O)[C@H](Cc1ccc(O)cc1)NC(=O)[C@@H](NC(=O)[C@H](CCCNC(=N)N)NC(=O)[C@@H](N)CC(=O)O)C(C)C)C(=O)N[C@@H](Cc1c[nH]cn1)C(=O)N1CCC[C@H]1C(=O)O [Ang-(1-7), Angiotensin (1-7)]
- time of peak plasma concentration post-injection [1]: 2 min
- time for circulating peptide levels to return to baseline levels after injection [1]: ≤ 5 min

Compound: CC[C@H](C)[C@H](NC(=O)[C@H](Cc1ccc(O)cc1)NC(=O)[C@@H](NC(=O)[C@H](CCCN=C(N)N)NC(=O)[C@@H](N)CC(=O)O)C(C)C)C(=O)N[C@@H](Cc1c[nH]cn1)C(=O)N1CCC[C@@H]1C(=O)O [D-Pro, D-Pro^7-Ang-(1-7)]
- time of peak plasma concentration post-injection [1]: 2 min
- fate in the rat circulation following a bolus injection [1]: rapidly degraded in the rat circulation
- time for circulating peptide levels to return to baseline levels after injection [1]: ≤ 5 min

Compound: Cc1cc(Cn2cnc3c2C[C@@H](C(=O)O)N(C(=O)C(c2ccccc2)c2ccccc2)C3)ccc1N(C)C [PD123319]
- maximum reduction in portal pressure [2, 10]: 4.8%
- time for which the reduction in PP persisted after injection [2, 10]: up to 20 min
- change in portal pressure (PP) from baseline ([2]; CCl4 rats, single i.v. bolus (A779, D-Pro 10 μg/kg; PD123319 1 mg/kg), measured at 5 min post-injection, six to seven rats per group): significant reduction in PP
- portal pressure reduction ([3]; BDL rats, PD123319 1 mg/kg i.v. bolus): not statistically significant
- effect on portal pressure (PP) [4]: failed to reduce PP
- effect on mean arterial pressure (MAP) ([5]; single i.v. bolus (A779, D-Pro 10 μg/kg; PD123319 1 mg/kg)): no effect on MAP
- effect on mean arterial pressure (MAP) ([6]; single i.v. bolus PD123319 1 mg/kg): no effect on MAP
- effect on mean arterial pressure (MAP) [7]: no effect on MAP
- block of Ang-(1-7)-stimulated cAMP release [8]: completed blocked

Compound: CCCCc1nc(Cl)c(CO)n1Cc1ccc(-c2ccccc2-c2nn[nH]n2)cc1 [losartan, losartan hydrochloride]
- duration of portal pressure lowering effect post-intervention [2, 11]: up to 30 min
- start of PP reduction post-injection [2, 11]: 5 min
- change in PP from baseline pressure ([2]; CCl4 model, losartan 1 mg/kg i.v. bolus, 12 to 14 rats): significant (p < 0.01) reduction in PP
- duration of portal pressure lowering effect post-intervention [3, 12]: up to 30 min
- start of PP reduction post-injection [3, 12]: 5 min
- change in PP from baseline pressure ([3]; BDL model, losartan 1 mg/kg i.v. bolus, 12 to 14 rats): significant (p < 0.01) reduction in PP
- start of MAP reduction post-injection ([5]; losartan 1 mg/kg i.v. bolus): 10 min
- change in MAP from baseline [5, 13]: significantly (p < 0.01) reduced MAP
- start of MAP reduction post-injection ([6]; losartan 1 mg/kg i.v. bolus): 5 min
- change in MAP from baseline [6, 13]: significantly (p < 0.01) reduced MAP
- ligand for MasR [9]: not a ligand for MasR
